Consider 25 molecules from patent publication US20250353852A1, “COMPOUNDS AND COMPOSITIONS THAT INHIBIT PIKFYVE” (Kineta, Inc., priority 2021, published 2025).

In the assay the target is full-length human PIKFYVE (Homo sapiens (Human), UniProt Q9Y2I7, L932S/Q1183K/Q995L/S1033A/S696N/T998S). Nature of the assay: PIKfyve biochemical assay (ADP-Glo Kinase assay, Carna Biosciences). The following applies: class symbols. From the text:
PIKfyve Biochemical Assay. The biochemical […] inhibition assays were run by Carna Biosciences according to proprietary methodology based on the Promega […] Kinase assay. […] NP_055855.2] was expressed as N-terminal GST-fusion protein (265 kDa) using baculovirus expression system. GST-PIKFYVE was purified by using glutathione sepharose chromatography and used in an ADP-GloTM Kinase assay (Promega). Reactions were set up by adding the test compound solution, substrate solution, ATP solution and kinase solution, each at 4× final concentrations. Reactions were prepared with assay buffer (50 mM MOPS, 1 mM DTT, pH7.2), mixed, and incubated in black 384 well polystyrene plates for 1 hour at room temperature. ADP-Glo^TM reagent was then added for 40 minutes, followed by kinase detection reagent for an additional 40 minutes. The kinase activity was evaluated by detecting relative light units on a luminescence plate reader. […] IC50 values were calculated from concentration vs % inhibition curves by fitting to a four-parameter logistic curve. […] The biochemical […] inhibition assays were run by Carna Biosciences according to proprietary methodology based on the Promega ADP-GloTM Kinase assay. […] GST-PIKFYVE was purified by using glutathione sepharose chromatography and used in an ADP-GIoTM Kinase assay (Promega). Reactions were set up by adding the test compound solution, substrate solution, ATP solution and kinase solution, each at 4× final concentrations. Reactions were prepared with assay buffer (50 mM MOPS, 1 mM DTT, pH7.2), mixed, and incubated in black 384 well polystyrene plates for 1 hour at room temperature. ADP-GIoTM reagent was then added for 40 minutes, followed by kinase detection reagent for an additional 40 minutes. The kinase activity was evaluated by detecting relative light units on a luminescence plate reader. […] IC50 values were calculated from concentration vs % inhibition curves by fitting to a four-parameter logistic curve. […] The same compounds were also tested in both FAB1 and PIKFYVE TDP-43 yeast models.

full-length human PIKFYVE, sequence (Q9Y2I7 whole entry S696N/L932S/Q995L/T998S/S1033A/Q1183K, the tested form may be a part): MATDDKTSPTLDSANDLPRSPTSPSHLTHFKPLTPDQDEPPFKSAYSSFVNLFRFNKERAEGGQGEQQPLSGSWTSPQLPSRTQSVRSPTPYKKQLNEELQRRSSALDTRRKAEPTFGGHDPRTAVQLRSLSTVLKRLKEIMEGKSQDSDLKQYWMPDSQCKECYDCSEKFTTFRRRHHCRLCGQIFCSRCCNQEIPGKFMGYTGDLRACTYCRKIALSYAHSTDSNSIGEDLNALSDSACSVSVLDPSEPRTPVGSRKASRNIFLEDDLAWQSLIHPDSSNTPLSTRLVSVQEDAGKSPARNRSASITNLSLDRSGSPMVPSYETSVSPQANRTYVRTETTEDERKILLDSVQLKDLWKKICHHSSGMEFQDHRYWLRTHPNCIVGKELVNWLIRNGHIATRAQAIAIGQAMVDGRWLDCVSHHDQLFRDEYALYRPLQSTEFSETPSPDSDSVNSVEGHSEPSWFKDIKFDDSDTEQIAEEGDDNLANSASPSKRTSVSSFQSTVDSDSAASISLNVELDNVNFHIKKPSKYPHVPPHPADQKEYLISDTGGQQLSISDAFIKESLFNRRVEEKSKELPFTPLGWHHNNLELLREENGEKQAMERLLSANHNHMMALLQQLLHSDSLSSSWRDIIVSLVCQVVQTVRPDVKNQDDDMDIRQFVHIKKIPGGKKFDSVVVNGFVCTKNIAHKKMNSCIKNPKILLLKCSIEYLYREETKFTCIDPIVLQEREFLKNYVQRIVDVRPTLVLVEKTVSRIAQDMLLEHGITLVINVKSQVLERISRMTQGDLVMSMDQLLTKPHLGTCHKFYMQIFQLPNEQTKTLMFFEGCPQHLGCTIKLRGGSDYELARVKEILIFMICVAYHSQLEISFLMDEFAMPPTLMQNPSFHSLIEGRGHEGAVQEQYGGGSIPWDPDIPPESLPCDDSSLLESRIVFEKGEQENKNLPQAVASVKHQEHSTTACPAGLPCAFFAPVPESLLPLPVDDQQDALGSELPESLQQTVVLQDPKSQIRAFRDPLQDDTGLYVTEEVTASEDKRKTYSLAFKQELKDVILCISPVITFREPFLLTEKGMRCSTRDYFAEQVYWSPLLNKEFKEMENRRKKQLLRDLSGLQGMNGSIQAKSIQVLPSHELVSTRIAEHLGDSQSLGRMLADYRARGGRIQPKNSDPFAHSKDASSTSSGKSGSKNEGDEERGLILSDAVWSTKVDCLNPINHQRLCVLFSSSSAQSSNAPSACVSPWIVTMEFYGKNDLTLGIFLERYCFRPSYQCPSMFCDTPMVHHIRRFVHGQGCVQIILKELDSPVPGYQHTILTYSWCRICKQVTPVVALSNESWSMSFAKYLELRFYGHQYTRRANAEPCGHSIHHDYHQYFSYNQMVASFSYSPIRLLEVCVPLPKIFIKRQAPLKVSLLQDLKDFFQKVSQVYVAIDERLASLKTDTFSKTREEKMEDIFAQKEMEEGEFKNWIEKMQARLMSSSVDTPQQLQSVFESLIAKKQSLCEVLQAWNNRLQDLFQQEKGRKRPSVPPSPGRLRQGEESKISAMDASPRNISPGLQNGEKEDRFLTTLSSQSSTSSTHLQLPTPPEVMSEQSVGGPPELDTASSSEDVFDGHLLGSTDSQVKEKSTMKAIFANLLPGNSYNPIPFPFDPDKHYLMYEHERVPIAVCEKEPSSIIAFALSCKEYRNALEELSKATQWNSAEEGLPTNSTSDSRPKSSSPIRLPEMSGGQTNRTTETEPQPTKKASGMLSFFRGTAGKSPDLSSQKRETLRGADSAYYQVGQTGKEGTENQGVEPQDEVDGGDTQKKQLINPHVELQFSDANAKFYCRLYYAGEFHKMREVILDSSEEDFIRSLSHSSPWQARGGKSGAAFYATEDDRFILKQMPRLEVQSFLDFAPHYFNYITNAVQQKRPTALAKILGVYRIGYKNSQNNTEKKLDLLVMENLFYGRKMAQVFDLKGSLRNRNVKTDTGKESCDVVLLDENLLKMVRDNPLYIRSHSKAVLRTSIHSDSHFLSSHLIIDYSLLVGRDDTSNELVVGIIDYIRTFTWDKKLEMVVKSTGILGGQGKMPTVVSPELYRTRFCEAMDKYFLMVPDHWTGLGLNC

`CC(C)(C)OC(=O)N1CCCC(c2cn(-c3cc(N4CCOCC4)n4nc(-c5ccncc5)cc4n3)cn2)C1` (stereo not shown) [Compound 15, tert-butyl 3-(1-(7-morpholino-2-(pyridin-4-yl)pyrazolo[1,5-a]pyrimidin-5-yl)-1H-imidazol-4-yl)piperidine-1-carboxylate] displayed an IC50 of 1000 to 10000 nM.

As to `c1cc(-c2cc3nc(-n4ncc5c4CCCC5)cc(N4CCOCC4)n3n2)ccn1` [Compound 86, 4-(2-(pyridin-4-yl)-5-(4,5,6,7-tetrahydro-1H-indazol-1-yl)pyrazolo[1,5-a]pyrimidin-7-yl)morpholine], the IC50 lay in the range of 1000 to 10000 nM.

With `c1ccc(-n2nccc2-c2cc(N3CCOCC3)n3nc(-c4ccncc4)cc3n2)cc1` [Compound 146, 4-(5-(1-phenyl-1H-pyrazol-5-yl)-2-(pyridin-4-yl)pyrazolo[1,5-a]pyrimidin-7-yl)morpholine], the IC50 fell in the range of 100 to 1000 nM.

Turning to `CCOC(=O)Cc1cc(N2CCOCC2)n2nc(-c3ccncc3)cc2n1` [Compound 133, ethyl 2-(7-morpholino-2-(pyridin-4-yl)pyrazolo[1,5-a]pyrimidin-5-yl)acetate], the IC50 fell in the range of 1000 to 10000 nM.

As for `c1ccc(-c2ccn(-c3cc(N4CCOCC4)n4nc(C5CCCO5)cc4n3)n2)cc1` (stereo not shown) [Compound 90, 4-(5-(3-phenyl-1H-pyrazol-1-yl)-2-(tetrahydrofuran-2-yl)pyrazolo[1,5-a]pyrimidin-7-yl)morpholine], the IC50 was in the range of 10 to 100 nM.

`Oc1cc(C2CCCCC2)nn1-c1cc(N2CCOCC2)n2nc(-c3ccncc3)cc2n1` [Compound 49, 3-cyclohexyl-1-(7-morpholino-2-(pyridin-4-yl)pyrazolo[1,5-a]pyrimidin-5-yl)-1H-pyrazol-5-ol] returned an IC50 of 100 to 1000 nM.

The molecule `CN1CCN(c2cc(N3CCOCC3)n3nc(-c4ccncc4)cc3n2)C(Cc2ccccc2)C1` (stereo not shown) [Compound 118, 4-(5-(2-benzyl-4-methylpiperazin-1-yl)-2-(pyridin-4-yl)pyrazolo[1,5-a]pyrimidin-7-yl)morpholine] showed an IC50 of 1000 to 10000 nM.

`CN1CC(c2cc(N3CCOCC3)n3nc(-c4ccncc4)cc3n2)CC1c1ccccc1` (stereo not shown) [Compound 19, 4-(5-(1-methyl-5-phenylpyrrolidin-3-yl)-2-(pyridin-4-yl)pyrazolo[1,5-a]pyrimidin-7-yl)morpholine] yielded an IC50 of 1000 to 10000 nM.

On to `O=C(/C=C/c1cc(N2CCOCC2)n2nc(-c3ccncc3)cc2n1)c1ccccc1` [Compound 109, (E)-3-(7-morpholino-2-(pyridin-4-yl)pyrazolo[1,5-a]pyrimidin-5-yl)-1-phenylprop-2-en-1-one], for which the IC50 was in the range of 1000 to 10000 nM.

The molecule `CN1CCN(c2cc(N3CCOCC3)n3nc(-c4ccncc4)cc3n2)C(Cc2ccccc2)C1=O` (stereo not shown) [Compound 28, 3-benzyl-1-methyl-4-(7-morpholino-2-(pyridin-4-yl)pyrazolo[1,5-a]pyrimidin-5-yl)piperazin-2-one] gave an IC50 of 1000 to 10000 nM.

For the molecule `c1cn(-c2cc(N3CCOCC3)n3nc(C4CCCO4)cc3n2)nc1C1CCOCC1` (stereo not shown) [Compound 95, 4-(5-(3-(tetrahydro-2H-pyran-4-yl)-1H-pyrazol-1-yl)-2-(tetrahydrofuran-2-yl)pyrazolo[1,5-a]pyrimidin-7-yl)morpholine], the IC50 is > 10000 nM.

In turn, `CNC(COc1cc(N2CCOCC2)n2nc(-c3ccncc3)cc2n1)c1cccc(C)c1` (stereo not shown) [Compound 126, N-methyl-2-((7-morpholino-2-(pyridin-4-yl)pyrazolo[1,5-a]pyrimidin-5-yl)oxy)-1-(m-tolyl)ethan-1-amine] returned an IC50 of 1000 to 10000 nM.

For the molecule `CC(C)(C)OC(=O)NC(=N)c1cc(N2CCOCC2)n2nc(-c3ccncc3)cc2n1` [Compound 115, tert-butyl imino(7-morpholino-2-(pyridin-4-yl)pyrazolo[1,5-a]pyrimidin-5-yl)methylcarbamate], the IC50 fell in the range of 100 to 1000 nM.

Consider `CN1CCN(c2cc(N3CCOCC3)n3nc(-c4ccncc4)cc3n2)CC1c1ccccc1` (stereo not shown) [Compound 38, 4-(5-(4-methyl-3-phenylpiperazin-1-yl)-2-(pyridin-4-yl)pyrazolo[1,5-a]pyrimidin-7-yl)morpholine], for which the IC50 lay in the range of 1000 to 10000 nM.

In turn, `CN1CC(=O)N(c2cc(N3CCOCC3)n3nc(-c4ccncc4)cc3n2)CC1c1ccccc1` (stereo not shown) [Compound 136, 4-methyl-1-(7-morpholino-2-(pyridin-4-yl)pyrazolo[1,5-a]pyrimidin-5-yl)-5-phenylpiperazin-2-one] returned an IC50 of 1000 to 10000 nM.

In turn, `O=C1C(c2ccccc2)CCCN1c1cc(N2CCOCC2)n2nc(-c3ccncc3)cc2n1` (stereo not shown) [Compound 24, 1-(7-morpholino-2-(pyridin-4-yl)pyrazolo[1,5-a]pyrimidin-5-yl)-3-phenylpiperidin-2-one] yielded a 50% inhibitory concentration (IC50) of 1000 to 10000 nM.

The molecule `O=c1c(Br)c(Br)cnn1-c1cc(N2CCOCC2)n2nc(-c3ccncc3)cc2n1` [Compound 4, 4,5-dibromo-2-(7-morpholino-2-(pyridin-4-yl)pyrazolo[1,5-a]pyrimidin-5-yl)pyridazin-3(2H)-one] had an IC50 of 1000 to 10000 nM.

Turning to `c1cc(-c2cc3nc(-n4cc5c(n4)COCC5)cc(N4CCOCC4)n3n2)ccn1` [Compound 87, 2-(7-morpholino-2-(pyridin-4-yl)pyrazolo[1,5-a]pyrimidin-5-yl)-2,4,5,7-tetrahydropyrano[3,4-c]pyrazole], the IC50 is 1000 to 10000 nM.

Molecule `c1cncc(-n2ccc(-c3cc(N4CCOCC4)n4nc(-c5ccncc5)cc4n3)n2)c1` [Compound 13, 4-(5-(1-(pyridin-3-yl)-1H-pyrazol-3-yl)-2-(pyridin-4-yl)pyrazolo[1,5-a]pyrimidin-7-yl)morpholine] gave an IC50 of 10 to 100 nM.

For the molecule `CN1CCN(c2cc(N3CCOCC3)n3nc(-c4ccncc4)cc3n2)C(=O)C1c1ccccc1` (stereo not shown) [Compound 27, 4-methyl-1-(7-morpholino-2-(pyridin-4-yl)pyrazolo[1,5-a]pyrimidin-5-yI)-3-phenylpiperazin-2-one], the IC50 is 1000 to 10000 nM.

As for `OCC1(c2ccn(-c3cc(N4CCOCC4)n4nc(-c5ccncc5)cc4n3)n2)CC1` [Compound 82, (1-(1-(7-morpholino-2-(pyridin-4-yl)pyrazolo[1,5-a]pyrimidin-5-yl)-1H-pyrazol-3-yl)cyclopropyl)methanol], the IC50 lay within 100 to 1000 nM.

`C1=C(c2cn(-c3cc(N4CCOCC4)n4nc(-c5ccncc5)cc4n3)cn2)CNCC1` [Compound 17, 4-(2-(pyridin-4-yl)-5-(4-(1,2,5,6-tetrahydropyridin-3-yl)-1H-imidazol-1-yl)pyrazolo[1,5-a]pyrimidin-7-yl)morpholine] returned an IC50 of 1000 to 10000 nM.

For the molecule `CN1CCCC(c2ccn(-c3cc(N4CCOCC4)n4nc(-c5ccncc5)cc4n3)n2)C1` (stereo not shown) [Compound 68, 4-(5-(3-(1-methylpiperidin-3-yl)-1H-pyrazol-1-yl)-2-(pyridin-4-yl)pyrazolo[1,5-a]pyrimidin-7-yl)morpholine], the IC50 was in the range of 100 to 1000 nM.

`CN1C(=O)CN(c2cc(N3CCOCC3)n3nc(-c4ccncc4)cc3n2)CC1c1ccccc1` (stereo not shown) [Compound 37, 1-methyl-4-(7-morpholino-2-(pyridin-4-yl)pyrazolo[1,5-a]pyrimidin-5-yl)-6-phenylpiperazin-2-one] returned an IC50 of 1000 to 10000 nM.

The molecule `c1ccc(C2CN(c3cc(N4CCOCC4)n4nc(-c5ccncc5)cc4n3)CCN2)cc1` (stereo not shown) [Compound 35, 4-(5-(3-phenylpiperazin-1-yl)-2-(pyridin-4-yl)pyrazolo[1,5-a]pyrimidin-7-yl)morpholine] registered an IC50 of 1000 to 10000 nM.
